Experimental data taken from patent US7531320B2, “Modulation of β-catenin/TCF-activated transcription” (priority 2003, dated 2009).

Experiments:
β-catenin/CBP complex = target: T1, β-catenin/CBP complex (Homo sapiens, UniProt Q92793); test: Co-immunoprecipitation of β-catenin with CBP in SW480 cells; assay type: cell-based
T1 construct: endogenous in cells; host or cells: SW480
Method: FIG. 3. COMPOUND 1 disrupts the β-catenin/CBP complex but not the p300/β-catenin complex. • A. Full-length Xenopus laevis β-catenin (1.1, 2.2, and 3.3 μg) or murine CBP (0.14, 0.28, 0.55, 1.1, and 2.2 μg) plasmids were cotransfected in SW480 cells along with the β-catenin/TCF (1.1 μg) reporter gene construct. Empty pcDNA3 vector was used to equalize the amount of DNA used in each reaction. Dual luciferase assays were performed 24 hours post COMPOUND 1 treatment. All experiments were performed in duplicate and values plotted as means +/−standard deviation. • B. COMPOUND 1 competes with β-catenin for CBP. SW480 cells were treated with 5 or 10 μM of COMPOUND 1 or control (0.5% DMSO). 24 hours post treatment, lysates were incubated with beads coated with either control the antibody, or anti-CBP, or anti-p300 antibodies. Co-immunoprecipitated proteins were subjected to gel electrophoresis and immunoblotting using anti-β-catenin antibodies. The arrows point to the immunoprecipitated β-catenin (doublets). • C. CBP (1-111) is the minimal region of interaction with β-catenin. SW480 cells transfected with a CBP deletion series were subjected to immunoprecipitation using anti-β-catenin antibodies coated on Protein A-agarose beads. The immune complexes were washed and subjected to gel electrophoresis followed by immunoblotting using anti-His antibodies. […]

cyclin D1 = test: Western blot of Cyclin D1 in SW480 whole cell lysates; assay type: cell-based, human; conditions: SW480 cells, 25 μM, beginning at 4 hours, increasing at 24 hours
Method: FIG. 5. COMPOUND 1 inhibits the expression of cyclin D1. • A. Cyclin D1 levels are decreased with COMPOUND 1 treatment. Western blot analysis was performed on 25 μg of SW480 whole cell lysates treated for 4, 8, or 24 hours with either 25 μM of COMPOUND 1 or control (0.5% DMSO). Immunoblotting was performed using anti-Cyclin D1 antibodies (Santa Cruz Biotechnology Inc.). • B. In vivo occupancy of cyclin D1 and c-myc promoters by CBP and p300. […] ChIP assays were performed on promoter of c-myc from SW480 cells which was treated for 8 hours with COMPOUND 1 (25 μM) or control (0.5% DMSO). CBP (AC-26, a generous gift from Dr. David Livingston, Harvard University, Boston, Mass.) or p300 (C-20, Santa Cruz Biotechnology Inc.) specific antibodies were used to evaluate the promoter occupancy by CBP or p300 in presence of COMPOUND 1 or control (DMSO) treatment.
Immune complexes, from above, were separated on SDS-PAGE followed by transfer to immobilon-P membranes (PVDF) from (Millipore, Bedford, Mass.). […] Immunoblots were analyzed using an ECL detection kit (Amersham Pharmacia Biotech).
The β-actin gene was used to normalize the data. The ΔCycle of Threshold (CT) values were determined by subtracting the average values of each set from the corresponding average values obtained for the β-actin gene. […] Cyclin D1 protein levels in cells were also evaluated. […]

T1 sequence (Q92793 whole entry, one chain of several): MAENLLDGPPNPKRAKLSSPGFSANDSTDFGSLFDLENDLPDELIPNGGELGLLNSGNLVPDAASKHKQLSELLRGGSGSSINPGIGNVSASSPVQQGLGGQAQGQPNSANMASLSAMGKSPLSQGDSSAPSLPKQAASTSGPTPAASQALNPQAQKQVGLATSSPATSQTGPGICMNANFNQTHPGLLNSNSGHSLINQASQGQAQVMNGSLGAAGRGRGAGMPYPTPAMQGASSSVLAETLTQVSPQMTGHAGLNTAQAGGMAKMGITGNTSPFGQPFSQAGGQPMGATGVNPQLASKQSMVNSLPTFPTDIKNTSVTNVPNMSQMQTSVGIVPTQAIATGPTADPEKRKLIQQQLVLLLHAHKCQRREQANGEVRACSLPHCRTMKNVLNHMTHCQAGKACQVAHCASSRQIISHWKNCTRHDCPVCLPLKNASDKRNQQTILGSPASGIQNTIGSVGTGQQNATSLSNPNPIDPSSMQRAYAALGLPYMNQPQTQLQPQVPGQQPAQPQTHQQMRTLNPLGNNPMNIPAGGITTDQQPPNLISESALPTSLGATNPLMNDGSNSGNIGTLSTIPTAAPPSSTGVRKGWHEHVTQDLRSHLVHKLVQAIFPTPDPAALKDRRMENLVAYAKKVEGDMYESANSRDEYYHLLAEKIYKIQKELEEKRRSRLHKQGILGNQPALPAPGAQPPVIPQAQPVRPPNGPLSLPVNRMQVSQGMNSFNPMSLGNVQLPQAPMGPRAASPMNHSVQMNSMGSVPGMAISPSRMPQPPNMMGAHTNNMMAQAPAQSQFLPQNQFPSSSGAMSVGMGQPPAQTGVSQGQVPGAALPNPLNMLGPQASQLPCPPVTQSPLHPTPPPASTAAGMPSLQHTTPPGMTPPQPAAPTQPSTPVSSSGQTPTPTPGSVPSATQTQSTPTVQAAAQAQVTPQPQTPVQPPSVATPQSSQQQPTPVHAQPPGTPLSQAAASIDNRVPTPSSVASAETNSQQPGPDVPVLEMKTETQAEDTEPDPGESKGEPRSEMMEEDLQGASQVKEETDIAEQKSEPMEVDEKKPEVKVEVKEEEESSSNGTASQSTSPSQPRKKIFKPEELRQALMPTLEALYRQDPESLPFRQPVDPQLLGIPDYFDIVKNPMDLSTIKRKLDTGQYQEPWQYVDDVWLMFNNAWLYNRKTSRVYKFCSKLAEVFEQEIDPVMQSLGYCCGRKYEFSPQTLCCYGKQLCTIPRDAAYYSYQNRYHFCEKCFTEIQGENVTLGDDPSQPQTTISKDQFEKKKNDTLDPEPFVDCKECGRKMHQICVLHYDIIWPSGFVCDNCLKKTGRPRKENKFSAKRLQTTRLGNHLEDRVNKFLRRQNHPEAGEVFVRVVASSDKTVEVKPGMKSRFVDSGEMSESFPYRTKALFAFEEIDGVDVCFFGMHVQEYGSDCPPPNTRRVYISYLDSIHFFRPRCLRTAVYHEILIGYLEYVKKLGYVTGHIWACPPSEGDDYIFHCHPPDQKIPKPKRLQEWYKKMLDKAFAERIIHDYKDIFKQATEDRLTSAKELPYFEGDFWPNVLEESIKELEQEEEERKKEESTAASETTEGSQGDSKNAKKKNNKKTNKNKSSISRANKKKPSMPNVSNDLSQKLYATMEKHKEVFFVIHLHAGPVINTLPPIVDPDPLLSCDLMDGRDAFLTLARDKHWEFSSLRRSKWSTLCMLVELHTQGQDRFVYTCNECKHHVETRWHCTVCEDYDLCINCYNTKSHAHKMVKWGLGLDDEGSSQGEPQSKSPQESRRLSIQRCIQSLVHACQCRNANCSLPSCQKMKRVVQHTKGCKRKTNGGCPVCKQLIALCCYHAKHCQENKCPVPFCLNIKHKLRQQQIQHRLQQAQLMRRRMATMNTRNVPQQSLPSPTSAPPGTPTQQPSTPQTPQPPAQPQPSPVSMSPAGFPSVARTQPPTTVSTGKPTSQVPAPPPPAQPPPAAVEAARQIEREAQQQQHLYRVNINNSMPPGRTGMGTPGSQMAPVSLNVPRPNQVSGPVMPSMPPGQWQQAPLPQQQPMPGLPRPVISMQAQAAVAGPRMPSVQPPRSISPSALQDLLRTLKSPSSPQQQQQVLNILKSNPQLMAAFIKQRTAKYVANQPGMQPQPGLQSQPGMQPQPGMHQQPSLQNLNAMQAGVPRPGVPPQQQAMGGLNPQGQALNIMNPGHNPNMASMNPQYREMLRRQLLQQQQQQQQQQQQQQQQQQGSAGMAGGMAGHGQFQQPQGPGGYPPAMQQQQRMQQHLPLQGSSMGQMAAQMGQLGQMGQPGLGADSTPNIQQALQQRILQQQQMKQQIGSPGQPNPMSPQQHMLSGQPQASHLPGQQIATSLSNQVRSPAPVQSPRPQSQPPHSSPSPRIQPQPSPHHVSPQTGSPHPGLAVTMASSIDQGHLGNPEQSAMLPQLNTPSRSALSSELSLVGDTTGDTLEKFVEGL

For `O=C1C(Cc2ccc(O)cc2)N2C(=O)CCN(C(=O)NCc3ccccc3)C2CN1Cc1cccc2ccccc12` (stereo not drawn) [COMPOUND 1], the “CBP fragments binding to immunoprecipitated β-catenin in presence of excess COMPOUND 1” value (β-catenin/CBP complex; CBP (1-111), (1-211), (1-351), 50 μM COMPOUND 1) was “dramatically competed away”, the “Immunoprecipitation of β-catenin with CBP” value (β-catenin/CBP complex; SW480 cells, 5 or 10 μM, 24 hours, concentration dependent) was “inhibited” and the “Level of Cyclin D1 protein” value (cyclin D1) was “clear reduction”.
